From US7763604B2, “Methods for administration of a farnesyl dibenzodiazepinone” (Thallion Pharma Ceuticals, Inc., priority 2005, dated 2010)

Assays:
[1] = population pharmacokinetic analysis, rat (IV + CIV); type: in vivo; details: population PK
Method: An analysis was performed to derive allometric equations for Formula I pharmacokinetic parameters using Formula I plasma concentration-time data from three species, including mouse, rat, and monkey, and to estimate human pharmacokinetic parameters from those allometric equations.
Plasma concentrations of Formula I were obtained from mice, rats, and monkeys following intravenous injection or continuous infusion. Formula I pharmacokinetic parameters in mice, rats, and monkeys were estimated using population pharmacokinetic analysis, a function of the software program NONMEM™ (version 5). Typical population pharmacokinetic parameters for Formula I in humans were extrapolated from allometric equations that were derived from pharmacokinetic parameters estimated in the three animal species.
A two-compartment model with a first-order elimination from the central compartment adequately described Formula I plasma concentration-time profiles following intravenous bolus injection (30 mg/kg) in mice and rats, 7-day continuous infusion in rats (50 to 170 mg/kg/day), and 14-day continuous infusion in monkeys (5 to 30 mg/kg/day).

[2] = system: rat glioma (C6) tumor xenograft; assay: rat C6 glioblastoma subcutaneous tumor model, antitumor efficacy; type: in vivo, female athymic (nu/nu) nude mice
Method: The rat C6 glioblastoma antitumor efficacy study was performed at INSERM U318 (Grenoble, France). The rat C6 glioblastoma subcutaneous tumor model is based on the use of a rat C6 cell line obtained from a rat glial tumor induced by N-nitrosomethylurea (Benda et al. (1968), Science, vol 161, 370-371). These animal studies were done according to ethical guidelines of animal experimentation (Charte du comité d'éthique du CNRS, 2003) and the English “Guidelines for the welfare of animals in experimental neoplasia (Second Edition)” from the United Kingdom Coordinating Committee on Cancer Research (UKCCCR) (Workman et al. (1998), Br. J. Cancer, vol 77, no 1, 1-10). On each dosing day, Formula I stock solutions (24 and 40 mg/mL in 20% ethanol, 20% PEG-400 and 60% Tween 80) were diluted with sterile 5% dextrose in water (D5W) to prepare dosing solutions of 6 mg/mL and 10 mg/mL of Formula I in a vehicle consisting of 5% ethanol, 5% PEG-400, 15% Tween-80, and 75% D5W.
For the rat glioma antitumor efficacy study, female athymic (nu/nu) nude mice (6-7 weeks of age) were inoculated SC with 5×10^6 C6 cells (day 0). Tumor bearing animals were randomized (10 per group) when tumors were palpable (day 6). Group 1 (control group) received drug-free vehicle (5% ethanol, 5% PEG-400, 15% Tween-80, and 75% D5W) IP (5 mL/kg), once daily on days 6-18 (q1d×13). Group 2 received Formula I (6 mg/mL) IP at 20 mg/kg, once daily on days 6 to 13 and then at 10 mg/kg once daily on days 14 to 18. Group 3 received Formula I (6 mg/mL) SC at 30 mg/kg, once daily on days 6 to 13 and then at 15 mg/kg once daily on days 14 to 18. Group 4 received Formula I (10 mg/mL) IV at 100 mg/kg q1d×5 for 2 weeks. Each animal was euthanized when its tumor reached the predetermined endpoint size (˜2,500 mm^3) or at the end of the study (D18). Treatment period was over 13 days, from day 6 to day 18, post tumor cell inoculation. Tumor growth inhibition (TGI) was calculated on day 16 post tumor cell inoculation, at which time some animals from the vehicle control group had to be sacrificed due to tumor burden.
In this model and the models of Examples 3, 6 and 7, tumor growth was followed every other day by measuring tumor length (L) and width (W) using a calliper. Measurements were converted to tumor volumes (TV; mm^3) using the standard formula, TV=(L×W^2)/2. Tumor volume at day n was expressed as relative tumor volume (RTV) according to the following formula RTV=TVn/TV0, where TVn is the tumor volume at day n and TV0 is the tumor volume at day 0. The percentage of tumor growth inhibition (% TGI) was determined by 1−(mean RTV of treated group/mean RTV of control group)×100. […] Statistical analysis was calculated by the two-tailed unpaired t test using the Prism software. […]

[3] = pharmacokinetics and tissue levels after 30 mg/kg bolus IV, IP, SC and PO in mice; type: in vivo, female Crl: CD1 mice
Method: The compound of formula I was dissolved in ethanol (5%), Polysorbate 80 (15%), PEG 400 (5%) and dextrose (5%) at a final concentration of 6 mg/ml (IV, IP and SC administration). For oral administration, the compound of Formula I was solubilized in Chremophor® EL/Ethanol (50%:50%) at a final concentration of 6 mg/ml. Prior to dosing, animals (female Crl: CD1 mice; 6 weeks of age, 22-24 g) were weighed, randomly selected and assigned to the different treatment groups. The compound of Formula I was administered by the bolus intravenous (IV), bolus subcutaneous (SC), bolus intraperitoneal (IP), or oral (PO) route to the assigned animals. The dosing volume of Formula I was 5 mL per kg body weight. Animals were anesthetized prior to bleeding with 5% isoflurane. Blood was collected into microtainer tubes containing the anticoagulant K2EDTA by cardiac puncture from each of 4 animals per bleeding timepoint (2 min, 5 min, 15 min, 30 min, 1 h, 2 h, 4 h and 8 h). Following collection, the samples were centrifuged and the plasma obtained from each sample was recovered and stored frozen (at approximately −80° C.) pending analysis. At the 5 min and 30 min time points, the following organs were harvested from each animal: brain, lungs, skeletal muscle, fat tissue, kidneys, spleen, thymus and liver. Tissues were frozen (at approximately −80° C.) pending analysis. Samples were analysed by LC/MS/MS.
Plasma values of the compound of Formula I falling below the limit of quantitation (LOQ) were set to zero. […] The following pharmacokinetic parameters were calculated: area under the plasma concentration versus time curve from time zero to the last measurable concentration time point (AUCO-t), area under the plasma concentration versus time curve extrapolated to infinity (AUCinf), maximum observed plasma concentration (Cmax), time of maximum plasma concentration (tmax), apparent first-order terminal elimination rate constant (kel), apparent first-order terminal elimination half-life will be calculated as 0.693/kel (t1/2). The systemic clearance (CL) of the compound of Formula I after intravenous administration was calculated using Dose/AUCinf. Pharmacokinetic parameters were calculated using Kinetica™ 4.1.1 (InnaPhase Corporation, Philadelphia, Pa.).

## CC(C)=CCC/C(C)=C/CC/C(C)=C/CN1C(=O)c2cccc(O)c2Nc2c(O)cc(O)cc21 [Formula I, 10-farnesyl-4,6,8-trihydroxy-dibenzodiazepin-11-one]
[1]
  Ke: 8.651 h⁻¹
[2]; IP 20 mg/kg (Q1D×8) followed by 10 mg/kg (Q1D×7), Day 13
  Maximum body weight loss: 15%
[2]; IV bolus 100 mg/kg (Q1D×5) over 2 weeks
  tumor volume relative to the vehicle control: No significant difference in tumor volume
[2]; IV group, 100 mg/kg (Q1D×5) over 2 weeks
  body weight loss: No significant body weight loss
[2]; SC 30 mg/kg (Q1D×8) followed by 15 mg/kg (Q1D×7)
  Maximum body weight loss: 11%
[3]; IP bolus 30 mg/kg
  peak plasma concentration: 7.8 µM
  time to peak plasma concentration: 15 min
[3]; IV and IP bolus 30 mg/kg, 30 min time point
  tissue distribution: well distributed
[3]; PO 30 mg/kg
  drug levels after oral administration: moderate but sustained drug levels
[3]; SC bolus 30 mg/kg
  peak plasma concentration: 2.3 µM
  time to peak plasma concentration: 60 min
[3]; SC bolus 30 mg/kg, 30 min time point
  tissue levels compared with IP: significantly lower
[3]; bolus IV 30 mg/kg, plasma, mice, 30 mg/kg
  t1/2,α: 4.7 min
[3]; bolus IV 30 mg/kg, start of decline
  plasma concentration, initial: ~425 µM
[3]; intraperitoneal and subcutaneous bolus 30 mg/kg, mice
  time plasma concentration is maintained at therapeutically relevant levels: over 8 hours
